Source: patent US9968577B2, “Treatment and prevention of bone loss using resolvins” (Forsyth Dental Infirmary for Children, priority 2005, dated 2018)

System: P. gingivalis-induced periodontitis
Experiment: Ligature + P. gingivalis experimental periodontitis, topical application of Resolvin E1
Type: in vivo, New Zealand White rabbits
[1] = rabbit, topical, every other day for 6 weeks, compared with baseline

CC[C@@H](O)/C=C/C=C\C[C@@H](O)/C=C/C=C/C=C\[C@@H](O)CCCC(=O)O [Resolvin E1]
bone loss (rabbit model, topical administration): prevents bone loss | soft tissue condition (mandibles, FIG. 2) (rabbit, topical resolvin E1 7 μg/μL in ethanol every other day for 6 weeks, starting six weeks after ligature and P. gingivalis, vs control group): distinctly healthier than the control group | deposition of bone (bone growth), conclusion (rabbit, topical, every other day for 6 weeks): assisted in deposition of bone | hard tissue crestal distance measurements (FIG. 4 and FIG. 5) (rabbit, topical, every other day for 6 weeks, buccal and lingual, defleshed jaws): same results | soft tissue pocket depth measurements (FIG. 3) (rabbit, topical, every other day for 6 weeks, buccal and lingual, vs vehicle alone): lower | hard-tissue-infrabony pocket depth measurements (FIG. 6) [1]: improvement over baseline | soft tissue pocket depth measurements vs baseline (FIG. 3) [1]: improvement over baseline | tooth mobility (FIG. 7) [1]: improvement over baseline
